According to US11739070B2, “C5A receptor modulators” (IDORSIA PHARMACEUTICALS LTD, priority 2018, dated 2023):

These molecules were tested against T1, C5AR1 (Homo sapiens, UniProt P21730) (assay: hC5a DISCO IC50 assay (PathHunter beta-arrestin, antagonist mode)). Details: CHO-K1 C5AR1 beta-arrestin cell line; antagonist vs 1-10 nM C5a agonist; geometric mean values; read-out: C5aR IC50.
T1 construct: host or cells: CHO-K1
T1 sequence (P21730 1-350): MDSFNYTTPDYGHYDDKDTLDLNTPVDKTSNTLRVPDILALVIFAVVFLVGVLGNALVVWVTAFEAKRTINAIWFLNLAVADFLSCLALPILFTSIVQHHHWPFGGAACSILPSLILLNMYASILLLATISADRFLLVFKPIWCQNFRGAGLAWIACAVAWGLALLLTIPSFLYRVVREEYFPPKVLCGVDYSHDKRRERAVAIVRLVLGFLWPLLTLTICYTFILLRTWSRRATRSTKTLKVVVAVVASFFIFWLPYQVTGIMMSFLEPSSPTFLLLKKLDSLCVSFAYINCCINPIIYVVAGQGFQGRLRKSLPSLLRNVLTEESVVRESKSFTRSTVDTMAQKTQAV
Type: cell-based
Outline: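 Antagonist added first, then 1-10 nM C5a agonist; cells incubated 1.5 h at 37 °C. Beta-arrestin signal developed with PathHunter detection reagent, 45 min at RT. IC50 in nmol/l from serial antagonist dilutions, reported as geometric mean of several measurements.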
`COC1CN(c2nccc3c2n(Cc2ccccc2C(F)(F)F)c(=O)n3[C@@H]2CCN(c3c(C)cccc3F)C2)C1` [Example 205, 1-[(R)-1-(2-Fluoro-6-methyl-phenyl)-pyrrolidin-3-yl]-4-(3-methoxy-azetidin-1-yl)-3-(2-trifluoromethyl-benzyl)-1,3-dihydro-imidazo[4,5-c]pyridin-2-one] showed an IC50 of 45 nM. Molecule `Cc1cccc(F)c1N1CC[C@@H](n2c(=O)n(Cc3ccccc3C(F)(F)F)c3c(N4CCN(C)CC4)nccc32)C1` [Example 206, 1-[(R)-1-(2-Fluoro-6-methyl-phenyl)-pyrrolidin-3-yl]-4-(4-methyl-piperazin-1-yl)-3-(2-trifluoromethyl-benzyl)-1,3-dihydro-imidazo[4,5-c]pyridin-2-one] has an IC50 of 2300 nM. Work on `COCCNc1nccc2c1n(Cc1ccccc1C(F)(F)F)c(=O)n2[C@@H]1CCN(c2c(C)cccc2F)C1` [Example 207, 1-[(R)-1-(2-Fluoro-6-methyl-phenyl)-pyrrolidin-3-yl]-4-(2-methoxy-ethylamino)-3-(2-trifluoromethyl-benzyl)-1,3-dihydro-imidazo[4,5-c]pyridin-2-one] yielded an IC50 of 508 nM. `COc1cccc2c1n(Cc1ccccc1OC1CC1)c(=O)n2[C@@H]1CCN(c2c(C)cccc2F)C1` [Example 208, 3-(2-Cyclopropoxy-benzyl)-1-[(R)-1-(2-fluoro-6-methyl-phenyl)-pyrrolidin-3-yl]-4-methoxy-1,3-dihydro-benzoimidazol-2-one] was tested, and the IC50 was 19 nM. `COc1cccc2c1n(Cc1ccccc1OC1CC1)c(=O)n2C1CCN(c2c(C)cccc2F)CC1` [Example 209, 3-(2-Cyclopropoxy-benzyl)-1-[1-(2-fluoro-6-methyl-phenyl)-piperidin-4-yl]-4-methoxy-1,3-dihydro-benzoimidazol-2-one] gave an IC50 of 34 nM. `COc1cccc2c1n(Cc1ccccc1C(F)(F)F)c(=O)n2C1CCN(C(=O)OC(C)(C)C)CC1F` (stereo not shown) [Example 210, 3-Fluoro-4-[4-methoxy-2-oxo-3-(2-trifluoromethyl-benzyl)-2,3-dihydro-benzoimidazol-1-yl]-piperidine-1-carboxylic acid tert-butyl ester] gave an IC50 of 2290 nM. `COc1cccc2c1n(Cc1ccccc1C(F)(F)F)c(=O)n2C1CCN(c2c(C)cccc2F)CC1F` (stereo not shown) [Example 211, 1-[3-Fluoro-1-(2-fluoro-6-methyl-phenyl)-piperidin-4-yl]-4-methoxy-3-(2-trifluoromethyl-benzyl)-1,3-dihydro-benzoimidazol-2-one] gave an IC50 of 27 nM. Work on `COc1cccc2c1n(Cc1ccccc1C(F)(F)F)c(=O)n2C1CCCN(c2c(C)cccc2F)C1` (stereo not shown) [Example 212, 1-[1-(2-Fluoro-6-methyl-phenyl)-piperidin-3-yl]-4-methoxy-3-(2-trifluoromethyl-benzyl)-1,3-dihydro-benzoimidazol-2-one] yielded an IC50 of 2080 nM. `COc1cccc2c1n(Cc1ccccc1C(F)(F)F)c(=O)n2C1CN(C(=O)OC(C)(C)C)C1` [Example 213, 3-[4-Methoxy-2-oxo-3-(2-trifluoromethyl-benzyl)-2,3-dihydro-benzoimidazol-1-yl]-azetidine-1-carboxylic acid tert-butyl ester] showed an IC50 of 469 nM. Work on `COc1cccc2c1n(Cc1ccccc1C(F)(F)F)c(=O)n2C1CCCN(C(=O)OC(C)(C)C)C1` (stereo not shown) [Example 214, 3-[4-Methoxy-2-oxo-3-(2-trifluoromethyl-benzyl)-2,3-dihydro-benzoimidazol-1-yl]-piperidine-1-carboxylic acid tert-butyl ester] yielded an IC50 of 205 nM. `COc1cccc2c1n(Cc1ccccc1C(F)(F)F)c(=O)n2C1CN(c2c(C)cccc2F)C1` [Example 215, 1-[1-(2-Fluoro-6-methyl-phenyl)-azetidin-3-yl]-4-methoxy-3-(2-trifluoromethyl-benzyl)-1,3-dihydro-benzoimidazol-2-one] gave an IC50 of 27 nM. With `COc1cccc2c1n(Cc1ncccc1C(F)(F)F)c(=O)n2C1CCN(c2c(C)cccc2F)CC1` [Example 216, 1-[1-(2-Fluoro-6-methyl-phenyl)-piperidin-4-yl]-4-methoxy-3-(3-trifluoromethyl-pyridin-2-ylmethyl)-1,3-dihydro-benzoimidazol-2-one] the IC50 was 12 nM. Molecule `COc1cccc2c1n(Cc1ccccc1C(F)(F)F)c(=O)n2C1CCCN(c2c(C)cccc2C)C1` (stereo not shown) [Example 217, 1-[1-(2,6-Dimethyl-phenyl)-piperidin-3-yl]-4-methoxy-3-(2-trifluoromethyl-benzyl)-1,3-dihydro-benzoimidazol-2-one] has an IC50 of 158 nM. For `COc1cccc2c1n(Cc1csc(C(F)(F)F)n1)c(=O)n2[C@@H]1CCN(c2c(C)cccc2F)C1` [Example 218, 1-[(R)-1-(2-Fluoro-6-methyl-phenyl)-pyrrolidin-3-yl]-4-methoxy-3-(2-trifluoromethyl-thiazol-4-ylmethyl)-1,3-dihydro-benzoimidazol-2-one], the IC50 was 346 nM. Molecule `COc1cccc2c1n([C@@H](C)c1ccccc1C(F)(F)F)c(=O)n2C1CCN(c2c(C)cccc2F)C1` (stereo partly drawn) [Example 219, 1-[1-(2-Fluoro-6-methyl-phenyl)-pyrrolidin-3-yl]-4-methoxy-3-[(S)-1-(2-trifluoromethyl-phenyl)-ethyl]-1,3-dihydro-benzoimidazol-2-one] has an IC50 of 34 nM. `COc1cccc2c1n(Cc1c(F)cc(F)cc1OC(C)C)c(=O)n2[C@@H]1CCN(c2c(C)cccc2F)C1` [Example 220, 3-(2,4-Difluoro-6-isopropoxy-benzyl)-1-[(R)-1-(2-fluoro-6-methyl-phenyl)-pyrrolidin-3-yl]-4-methoxy-1,3-dihydro-benzoimidazol-2-one] was tested, and the IC50 was 109 nM. Work on `COc1cccc2c1n(Cc1sc(C)nc1C(F)(F)F)c(=O)n2[C@@H]1CCN(c2c(C)cccc2F)C1` [Example 221, 1-[(R)-1-(2-Fluoro-6-methyl-phenyl)-pyrrolidin-3-yl]-4-methoxy-3-(2-methyl-4-trifluoromethyl-thiazol-5-ylmethyl)-1,3-dihydro-benzoimidazol-2-one] yielded an IC50 of 175 nM. With `COc1cccc2c1n(Cc1ccccc1C(F)(F)F)c(=O)n2C1CCN(C(=O)C2CC2)CC1` [Example 222, 1-(1-Cyclopropanecarbonyl-piperidin-4-yl)-4-methoxy-3-(2-trifluoromethyl-benzyl)-1,3-dihydro-benzoimidazol-2-one] the IC50 was 2650 nM. Work on `COc1cccc2c1n(Cc1ccccc1C1CC1)c(=O)n2C1CCN(c2c(C)cccc2F)CC1` [Example 223, 3-(2-Cyclopropyl-benzyl)-1-[1-(2-fluoro-6-methyl-phenyl)-piperidin-4-yl]-4-methoxy-1,3-dihydro-benzoimidazol-2-one] yielded an IC50 of 130 nM. Molecule `COc1cccc2c1n(Cc1ccccc1OCC1CC1)c(=O)n2C1CCN(c2c(C)cccc2F)CC1` [Example 224, 3-(2-Cyclopropylmethoxy-benzyl)-1-[1-(2-fluoro-6-methyl-phenyl)-piperidin-4-yl]-4-methoxy-1,3-dihydro-benzoimidazol-2-one] has an IC50 of 18 nM. Molecule `COc1cccc2c1n(Cc1ccccc1OC1COC1)c(=O)n2C1CCN(c2c(C)cccc2F)CC1` [Example 225, 1-[1-(2-Fluoro-6-methyl-phenyl)-piperidin-4-yl]-4-methoxy-3-[2-(oxetan-3-yloxy)-benzyl]-1,3-dihydro-benzoimidazol-2-one] has an IC50 of 40 nM. In the case of `COc1cccc2c1n(Cc1ccccc1OC1CCC1)c(=O)n2C1CCN(c2c(C)cccc2F)CC1` [Example 226, 3-(2-Cyclobutoxy-benzyl)-1-[1-(2-fluoro-6-methyl-phenyl)-piperidin-4-yl]-4-methoxy-1,3-dihydro-benzoimidazol-2-one], the IC50 is reported as 36 nM. In the case of `COc1cccc2c1n(Cc1ccccc1C(F)(F)F)c(=O)n2C1CCN(c2c(C)cccc2F)CC1(C)C` (stereo not shown) [Example 227, 1-[1-(2-Fluoro-6-methyl-phenyl)-3,3-dimethyl-piperidin-4-yl]-4-methoxy-3-(2-trifluoromethyl-benzyl)-1,3-dihydro-benzoimidazol-2-one], the IC50 is reported as 30 nM. In the case of `COc1cccc2c1n(Cc1ccccc1C(F)(F)F)c(=O)n2C1CCN(C(=O)OC(C)(C)C)CC1(C)C` (stereo not shown) [Example 228, 4-[4-Methoxy-2-oxo-3-(2-trifluoromethyl-benzyl)-2,3-dihydro-benzoimidazol-1-yl]-3,3-dimethyl-piperidine-1-carboxylic acid tert-butyl ester], the IC50 is reported as 259 nM. `COc1cncc2c1n(Cc1ccccc1C(F)(F)F)c(=O)n2C1CCN(c2c(C)cccc2F)CC1` [Example 229, 3-[1-(2-Fluoro-6-methyl-phenyl)-piperidin-4-yl]-7-methoxy-1-(2-trifluoromethyl-benzyl)-1,3-dihydro-imidazo[4,5-c]pyridin-2-one] gave an IC50 of 268 nM. `COc1cccc2c1n(Cc1ccccc1C(F)(F)F)c(=O)n2C1CCN(c2ccccc2O)CC1` [Example 230, 1-[1-(2-Hydroxy-phenyl)-piperidin-4-yl]-4-methoxy-3-(2-trifluoromethyl-benzyl)-1,3-dihydro-benzoimidazol-2-one] showed an IC50 of 129 nM. `COc1cccc2c1n(Cc1ccccc1C(F)(F)F)c(=O)n2C1CCN(c2ccccc2OCc2ccccc2)CC1` [Example 231, 1-[1-(2-Benzyloxy-phenyl)-piperidin-4-yl]-4-methoxy-3-(2-trifluoromethyl-benzyl)-1,3-dihydro-benzoimidazol-2-one] gave an IC50 of 66 nM. For `COc1cccc2c1n(Cc1ccccc1C(F)(F)F)c(=O)n2C1CCN(c2ncccc2C)CC1` [Example 232, 4-Methoxy-1-(3′-methyl-3,4,5,6-tetrahydro-2H-[1,2′]bipyridinyl-4-yl)-3-(2-trifluoromethyl-benzyl)-1,3-dihydro-benzoimidazol-2-one], the IC50 was 82 nM.
